From ChEMBL document CHEMBL1144453, “Ligand binding analysis for human alpha5beta1 integrin: strategies for designing new alpha5beta1 integrin antagonists” (J Med Chem, 2005)

Columns and labels:
[1] = target: Integrin alpha-IIb/beta-3 (Homo sapiens, UniProt P05106+P08514); assay: Inhibition of alpha IIb beta3 integrin receptor in human platelet rich plasma
Integrin alpha-V/beta-3 = Integrin alpha-V/beta-3 (Homo sapiens, UniProt P05106+P06756); assay: Inhibition of fibrinogen binding to alphaV-beta3 integrin receptor; format: protein-complex assay
Integrin alpha-V/beta-3, sequence (P05106 27-788 limits assumed): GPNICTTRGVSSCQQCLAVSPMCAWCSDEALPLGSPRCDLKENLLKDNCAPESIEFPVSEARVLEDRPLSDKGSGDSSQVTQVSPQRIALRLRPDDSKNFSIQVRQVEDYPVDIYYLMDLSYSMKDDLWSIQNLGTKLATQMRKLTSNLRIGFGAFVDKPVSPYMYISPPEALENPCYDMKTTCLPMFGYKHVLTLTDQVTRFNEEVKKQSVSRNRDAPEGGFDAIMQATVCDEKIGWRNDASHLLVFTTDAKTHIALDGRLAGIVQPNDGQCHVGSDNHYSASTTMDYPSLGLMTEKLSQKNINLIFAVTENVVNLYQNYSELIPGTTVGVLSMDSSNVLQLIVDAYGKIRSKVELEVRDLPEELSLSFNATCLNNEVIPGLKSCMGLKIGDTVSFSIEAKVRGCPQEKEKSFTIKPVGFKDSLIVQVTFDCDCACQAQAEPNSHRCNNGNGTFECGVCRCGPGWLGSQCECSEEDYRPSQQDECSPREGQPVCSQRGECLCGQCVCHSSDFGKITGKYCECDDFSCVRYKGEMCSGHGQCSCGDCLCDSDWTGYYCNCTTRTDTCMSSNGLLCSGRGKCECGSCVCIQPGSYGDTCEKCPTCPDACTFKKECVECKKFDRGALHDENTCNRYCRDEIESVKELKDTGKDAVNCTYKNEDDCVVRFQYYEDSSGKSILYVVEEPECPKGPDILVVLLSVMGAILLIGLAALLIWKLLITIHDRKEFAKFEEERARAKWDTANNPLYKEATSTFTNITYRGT
Integrin alpha-V/beta-3, sequence (P06756 31-889 limits assumed): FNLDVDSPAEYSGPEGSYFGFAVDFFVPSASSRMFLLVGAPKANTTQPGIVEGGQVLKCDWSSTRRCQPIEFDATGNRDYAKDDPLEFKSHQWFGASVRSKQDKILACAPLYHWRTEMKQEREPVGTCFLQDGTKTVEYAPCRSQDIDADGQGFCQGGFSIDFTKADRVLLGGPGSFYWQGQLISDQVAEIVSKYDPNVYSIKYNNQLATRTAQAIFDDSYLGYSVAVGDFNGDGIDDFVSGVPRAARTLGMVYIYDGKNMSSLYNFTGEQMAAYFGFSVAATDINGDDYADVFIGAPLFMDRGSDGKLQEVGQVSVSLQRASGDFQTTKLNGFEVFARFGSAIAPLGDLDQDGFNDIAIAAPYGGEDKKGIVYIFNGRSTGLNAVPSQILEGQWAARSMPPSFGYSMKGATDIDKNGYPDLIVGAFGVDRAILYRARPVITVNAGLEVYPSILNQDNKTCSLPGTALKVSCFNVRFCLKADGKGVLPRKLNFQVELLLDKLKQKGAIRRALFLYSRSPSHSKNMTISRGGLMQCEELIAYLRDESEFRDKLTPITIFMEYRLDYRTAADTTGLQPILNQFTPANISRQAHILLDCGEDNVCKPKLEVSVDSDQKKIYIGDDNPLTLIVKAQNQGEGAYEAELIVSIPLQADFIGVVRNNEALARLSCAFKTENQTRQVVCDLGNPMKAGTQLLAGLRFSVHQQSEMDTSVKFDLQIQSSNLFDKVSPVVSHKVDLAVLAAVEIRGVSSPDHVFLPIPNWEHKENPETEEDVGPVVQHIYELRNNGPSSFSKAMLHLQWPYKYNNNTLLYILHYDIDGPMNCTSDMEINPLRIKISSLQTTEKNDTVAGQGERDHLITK
Integrin alpha-V/beta-3, sequence (P06756 891-1048 limits assumed): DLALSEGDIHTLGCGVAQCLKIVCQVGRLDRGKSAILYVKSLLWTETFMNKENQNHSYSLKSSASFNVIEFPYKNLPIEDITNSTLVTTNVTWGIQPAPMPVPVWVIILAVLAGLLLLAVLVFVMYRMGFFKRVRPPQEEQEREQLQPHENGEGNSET

Integrin alpha-5/beta-1 = Integrin alpha-5/beta-1 (Homo sapiens, UniProt P05556+P08648); assay: Inhibition of alpha5-beta1 integrin receptor in ELISA; format: protein-complex assay
Integrin alpha-5/beta-1, sequence (P05556 21-798 limits assumed): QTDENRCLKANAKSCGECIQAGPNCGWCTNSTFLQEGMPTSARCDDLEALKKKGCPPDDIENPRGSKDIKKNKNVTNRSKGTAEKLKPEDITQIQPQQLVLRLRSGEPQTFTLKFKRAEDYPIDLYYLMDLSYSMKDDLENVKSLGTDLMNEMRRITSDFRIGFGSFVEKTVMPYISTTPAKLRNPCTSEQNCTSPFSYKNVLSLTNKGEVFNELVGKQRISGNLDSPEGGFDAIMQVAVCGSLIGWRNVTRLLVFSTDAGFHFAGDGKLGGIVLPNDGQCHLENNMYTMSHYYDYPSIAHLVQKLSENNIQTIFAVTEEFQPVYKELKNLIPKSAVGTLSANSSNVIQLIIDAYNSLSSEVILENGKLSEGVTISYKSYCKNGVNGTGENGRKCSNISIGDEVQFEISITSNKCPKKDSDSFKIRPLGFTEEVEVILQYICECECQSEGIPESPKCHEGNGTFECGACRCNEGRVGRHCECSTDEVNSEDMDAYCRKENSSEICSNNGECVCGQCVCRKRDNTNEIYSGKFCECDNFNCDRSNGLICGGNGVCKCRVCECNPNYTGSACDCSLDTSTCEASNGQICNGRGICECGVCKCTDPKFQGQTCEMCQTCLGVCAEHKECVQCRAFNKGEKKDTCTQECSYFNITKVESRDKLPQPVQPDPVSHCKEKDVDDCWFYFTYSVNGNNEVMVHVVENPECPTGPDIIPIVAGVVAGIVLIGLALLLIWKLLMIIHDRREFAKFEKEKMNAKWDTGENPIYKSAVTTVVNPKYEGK
Integrin alpha-5/beta-1, sequence (P08648 42-894 limits assumed): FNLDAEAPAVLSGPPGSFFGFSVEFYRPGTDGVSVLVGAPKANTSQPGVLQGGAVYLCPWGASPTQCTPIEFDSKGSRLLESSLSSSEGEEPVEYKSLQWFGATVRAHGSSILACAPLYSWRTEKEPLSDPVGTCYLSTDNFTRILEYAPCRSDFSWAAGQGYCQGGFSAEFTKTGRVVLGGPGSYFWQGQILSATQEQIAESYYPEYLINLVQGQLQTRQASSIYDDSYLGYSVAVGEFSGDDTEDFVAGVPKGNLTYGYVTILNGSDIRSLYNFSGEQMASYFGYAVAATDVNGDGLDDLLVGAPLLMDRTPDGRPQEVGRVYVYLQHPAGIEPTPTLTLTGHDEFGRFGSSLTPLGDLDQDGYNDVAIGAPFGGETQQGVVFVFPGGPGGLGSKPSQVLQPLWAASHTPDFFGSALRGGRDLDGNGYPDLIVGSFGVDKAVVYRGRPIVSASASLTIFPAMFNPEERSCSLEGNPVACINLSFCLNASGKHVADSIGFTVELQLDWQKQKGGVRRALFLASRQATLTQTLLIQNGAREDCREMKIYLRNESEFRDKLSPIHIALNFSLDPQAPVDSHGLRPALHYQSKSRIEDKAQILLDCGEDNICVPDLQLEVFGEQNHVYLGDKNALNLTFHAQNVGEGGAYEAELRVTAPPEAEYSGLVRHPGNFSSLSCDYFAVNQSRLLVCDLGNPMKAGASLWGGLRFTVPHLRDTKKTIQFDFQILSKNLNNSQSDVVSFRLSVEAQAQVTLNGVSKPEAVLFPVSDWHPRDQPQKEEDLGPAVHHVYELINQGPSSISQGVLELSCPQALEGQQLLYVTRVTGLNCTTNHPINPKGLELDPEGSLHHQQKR
Integrin alpha-5/beta-1, sequence (P08648 895-1049 limits assumed): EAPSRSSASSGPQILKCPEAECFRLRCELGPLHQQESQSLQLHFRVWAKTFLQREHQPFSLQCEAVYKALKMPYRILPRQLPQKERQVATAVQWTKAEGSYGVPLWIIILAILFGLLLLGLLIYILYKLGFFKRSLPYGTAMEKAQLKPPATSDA

Integrin alpha-IIb/beta-3, sequence (P05106 27-788 limits assumed): as the sequence (P05106 27-788 limits assumed) above
Integrin alpha-IIb/beta-3, sequence (P08514 32-887 limits assumed): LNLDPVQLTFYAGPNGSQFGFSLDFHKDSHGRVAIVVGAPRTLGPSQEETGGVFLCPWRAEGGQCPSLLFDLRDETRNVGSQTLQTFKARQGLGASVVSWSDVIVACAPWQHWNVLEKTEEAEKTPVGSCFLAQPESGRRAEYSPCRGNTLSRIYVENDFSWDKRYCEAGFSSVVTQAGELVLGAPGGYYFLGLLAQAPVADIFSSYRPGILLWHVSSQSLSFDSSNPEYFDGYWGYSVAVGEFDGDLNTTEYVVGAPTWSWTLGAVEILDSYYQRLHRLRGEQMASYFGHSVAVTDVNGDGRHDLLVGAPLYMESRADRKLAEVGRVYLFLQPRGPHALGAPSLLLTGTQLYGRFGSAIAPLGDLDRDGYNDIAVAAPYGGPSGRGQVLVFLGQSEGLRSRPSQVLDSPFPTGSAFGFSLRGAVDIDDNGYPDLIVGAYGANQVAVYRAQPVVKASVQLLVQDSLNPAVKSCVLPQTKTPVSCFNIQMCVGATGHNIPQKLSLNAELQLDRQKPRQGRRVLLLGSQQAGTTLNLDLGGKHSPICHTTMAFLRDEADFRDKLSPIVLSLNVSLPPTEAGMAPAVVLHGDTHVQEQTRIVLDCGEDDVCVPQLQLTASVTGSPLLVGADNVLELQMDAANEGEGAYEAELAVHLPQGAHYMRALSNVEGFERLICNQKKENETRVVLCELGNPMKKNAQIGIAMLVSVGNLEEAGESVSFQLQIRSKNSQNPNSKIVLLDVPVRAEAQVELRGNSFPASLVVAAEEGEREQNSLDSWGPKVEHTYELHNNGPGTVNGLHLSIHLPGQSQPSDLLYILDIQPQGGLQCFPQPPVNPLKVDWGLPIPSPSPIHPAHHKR
Integrin alpha-IIb/beta-3, sequence (P08514 891-1039 limits assumed): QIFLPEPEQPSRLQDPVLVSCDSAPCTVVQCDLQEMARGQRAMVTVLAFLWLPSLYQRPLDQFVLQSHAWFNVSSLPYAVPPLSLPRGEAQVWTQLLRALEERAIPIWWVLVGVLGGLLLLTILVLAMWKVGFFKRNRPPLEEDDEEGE

Row | SMILES | IC50 [1] [nM] | IC50 (Integrin alpha-V/beta-3) [nM] | IC50 (Integrin alpha-5/beta-1) [nM]
1 | CCCCOC(=O)N1C[C@@]2(CC(C(=O)NC[C@H](NS(=O)(=O)c3c(C)cc(C)cc3C)C(=O)O)=NO2)C[C@H]1CNc1nc2ccccc2[nH]1 | > 100000 | 87 | –
2 | Cc1cc(C)c(S(=O)(=O)N[C@@H](CNC(=O)C2=NO[C@]3(CN[C@H](CNc4ncc[nH]4)C3)C2)C(=O)O)c(C)c1 | 1400 | 180 | –
3 | CCCCOC(=O)N1C[C@@]2(CC(C(=O)NC[C@H](NS(=O)(=O)c3c(C)cc(C)cc3C)C(=O)O)=NO2)C[C@H]1CNc1ncc[nH]1 | 11000 | 130 | –
4 | Cc1cc(C)c(S(=O)(=O)N[C@@H](CNC(=O)C2=NO[C@]3(C2)C[C@@H](CNc2ccccn2)N(C(=O)OCc2ccccc2)C3)C(=O)O)c(C)c1 | > 100000 | 49 | –
5 | Cc1cc(C)c(S(=O)(=O)N[C@@H](CNC(=O)C2=NO[C@]3(C2)C[C@@H](CNc2ncc[nH]2)N(C(=O)OCc2ccccc2)C3)C(=O)O)c(C)c1 | 34000 | 41 | –
6 | Cc1cc(C)c(S(=O)(=O)N[C@@H](CNC(=O)C2=NO[C@]3(C2)C[C@@H](CNc2ncc[nH]2)N(C(=O)OCc2cccnc2)C3)C(=O)O)c(C)c1 | 5600 | 32 | –
7 | COC(=O)N1C[C@@]2(CC(C(=O)NC[C@H](NS(=O)(=O)c3c(C)cc(C)cc3C)C(=O)O)=NO2)C[C@H]1CNc1ncc[nH]1 | 7300 | 57 | –
8 | Cc1cc(C)c(S(=O)(=O)N[C@@H](CNC(=O)C2=NO[C@]3(C2)C[C@@H](CNC2NC=CN2)N(C(=O)OCc2ccccc2)C3)C(=O)O)c(C)c1 | 7300 | 57 | 13
9 | COC(=O)N1C[C@@]2(CC(C(=O)NC[C@H](NS(=O)(=O)c3c(C)cc(C)cc3C)C(=O)O)=NO2)C[C@H]1CNc1nc2ccccc2[nH]1 | > 100000 | 34 | –
10 | Cc1cc(C)c(S(=O)(=O)N[C@@H](CNC(=O)C2=NOC3(C2)C[C@@H](CNC2NC=CN2)N(C(=O)OCc2ccccc2)C3)C(=O)O)c(C)c1 (single isomer, unassigned) | 9200 | > 1000 | 1200
